Source: ChEMBL document CHEMBL4043239, “Discovery and optimization of oxadiazole-based FLAP inhibitors” (Bioorg Med Chem Lett, 2017)
≈ marks a conversion by molar mass, not a printed value.

Key:
[1] = target: T1, Arachidonate 5-lipoxygenase-activating protein (Homo sapiens, UniProt P20292); assay: Inhibition of FLAP in calcimycin-stimulated human whole blood assessed as reduction in LTB4 production pretreated for 15 mins followed by calcimycin addition after 30 mins by ELISA
T1 sequence (P20292 whole entry): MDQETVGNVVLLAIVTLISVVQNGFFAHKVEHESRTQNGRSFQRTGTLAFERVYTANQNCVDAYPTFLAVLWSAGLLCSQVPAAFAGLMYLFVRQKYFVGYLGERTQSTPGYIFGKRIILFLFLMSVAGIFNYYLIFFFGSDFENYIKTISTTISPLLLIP

[2] = Aqueous kinetic solubility of the compound at pH 7.4; type: physicochemical; details: for solubility kinetic: aqueous, read-out: Kinetic_solubility; for Kinetic_solubility: buffer
[3] = target: T1, Arachidonate 5-lipoxygenase-activating protein; assay: Displacement of [125I]-L-691831 from human FLAP expressed in Sf9 cell membranes after 2 hrs by Topcount method
[4] = Stability in human liver microsomes at 1 uM pretreated for 10 mins followed by NADPH addition after 60 mins by LC/MS analysis relative to hepatic blood flow; type: ADME, microsome; details: read-out: Stability
[5] = Aqueous equilibrium solubility in citric acid/disodium phosphate buffer at pH 6.8 at 1 uM after 24 hrs by HPLC method; type: physicochemical; details: for solubility thermodynamic at 24 h, 1 µM: citric acid/disodium phosphate buffer, pH 6.8; for solubility: buffer, pH 6.8, 24 h, 1 µM
[6] = target: T2, hERG (KCNH2) (Homo sapiens, UniProt Q12809); assay: Inhibition of human ERG expressed in HEK293 cells at 30 uM by whole-cell patch clamp method relative to control; type: cell-based; details: HEK293 cells expressing human ERG
[7] = Clearance in human hepatocytes at 1 uM measured after 1 hr by LC/MS analysis relative to hepatic blood flow; type: ADME, cell-based, Hepatocyte
[8] = target: T2, hERG (KCNH2); assay: Inhibition of human ERG expressed in CHO cells at 11 uM at -70mV holding potential measured after 300 secs by IonWorks electrophysiology method relative to control; type: cell-based; details: CHO cells expressing human ERG
[9] = target: T2, hERG (KCNH2); assay: Inhibition of human ERG expressed in CHO cells at 14 uM at -70mV holding potential measured after 300 secs by IonWorks electrophysiology method relative to control; type: cell-based; details: CHO cells expressing human ERG
[10] = target: T3, Arachidonate 5-lipoxygenase-activating protein (Homo sapiens) (UniProt P20292); assay: Ratio of IC50 for FLAP in calcimycin-stimulated human whole blood to IC50 for displacement of [125I]-L-691831 from human FLAP expressed in Sf9 cell membranes
T3 sequence (whole entry): T1 sequence (P20292 whole entry)

[11] = target: T2, hERG (KCNH2); assay: Inhibition of human ERG expressed in CHO cells at 12 uM at -70mV holding potential measured after 300 secs by IonWorks electrophysiology method relative to control; type: cell-based; details: CHO cells expressing human ERG
[12] = target: T2, hERG (KCNH2); assay: Inhibition of human ERG expressed in CHO cells at 30 uM at -70mV holding potential measured after 300 secs by IonWorks electrophysiology method relative to control; type: cell-based; details: CHO cells expressing human ERG
[13] = target: T2, hERG (KCNH2); assay: Inhibition of human ERG expressed in CHO cells at 33 uM at -70mV holding potential measured after 300 secs by IonWorks electrophysiology method relative to control; type: cell-based; details: CHO cells expressing human ERG
[14] = target: T2, hERG (KCNH2); assay: Inhibition of human ERG expressed in CHO cells at 17 uM at -70mV holding potential measured after 300 secs by IonWorks electrophysiology method relative to control; type: cell-based; details: CHO cells expressing human ERG

T2 sequence (Q12809 whole entry): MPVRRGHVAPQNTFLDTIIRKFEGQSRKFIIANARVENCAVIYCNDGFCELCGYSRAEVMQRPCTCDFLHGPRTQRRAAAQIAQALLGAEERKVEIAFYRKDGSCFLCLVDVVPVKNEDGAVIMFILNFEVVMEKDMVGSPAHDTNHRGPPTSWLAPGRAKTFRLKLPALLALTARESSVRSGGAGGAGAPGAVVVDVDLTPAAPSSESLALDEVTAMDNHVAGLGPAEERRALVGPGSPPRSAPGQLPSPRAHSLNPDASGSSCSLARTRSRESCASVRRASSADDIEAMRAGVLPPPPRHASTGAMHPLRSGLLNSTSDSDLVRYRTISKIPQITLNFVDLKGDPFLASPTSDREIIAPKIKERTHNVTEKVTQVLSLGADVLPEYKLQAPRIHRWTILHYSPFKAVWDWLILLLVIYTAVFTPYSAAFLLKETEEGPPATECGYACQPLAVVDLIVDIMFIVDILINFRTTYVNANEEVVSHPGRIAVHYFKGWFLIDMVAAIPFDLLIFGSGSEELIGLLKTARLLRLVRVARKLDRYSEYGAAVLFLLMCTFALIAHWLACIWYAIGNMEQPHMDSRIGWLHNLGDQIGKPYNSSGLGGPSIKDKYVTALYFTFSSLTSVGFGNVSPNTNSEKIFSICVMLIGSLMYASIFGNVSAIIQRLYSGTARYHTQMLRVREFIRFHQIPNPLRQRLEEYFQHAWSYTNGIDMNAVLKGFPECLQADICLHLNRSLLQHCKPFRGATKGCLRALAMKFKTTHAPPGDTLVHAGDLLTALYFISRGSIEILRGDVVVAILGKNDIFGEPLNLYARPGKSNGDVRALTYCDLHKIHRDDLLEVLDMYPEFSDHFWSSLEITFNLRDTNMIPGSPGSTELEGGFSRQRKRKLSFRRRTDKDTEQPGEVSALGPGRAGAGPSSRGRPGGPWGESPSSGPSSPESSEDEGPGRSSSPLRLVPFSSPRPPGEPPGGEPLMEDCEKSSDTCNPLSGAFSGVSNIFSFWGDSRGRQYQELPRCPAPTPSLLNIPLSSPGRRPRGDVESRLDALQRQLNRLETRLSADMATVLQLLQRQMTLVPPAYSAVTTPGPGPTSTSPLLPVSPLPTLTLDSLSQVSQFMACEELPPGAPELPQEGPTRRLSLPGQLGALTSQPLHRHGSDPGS

SMILES	IC50 [1] [nM]	solubility kinetic [2] [µg/mL]	IC50 [3] [nM]	hepatic extraction ratio at 1 h, 1 µM [4]	further results
CN(C)c1nc(C2(c3ccc(-c4cnc(N)nc4)nc3)CCC2)no1	2600				
Cc1cc(-c2nc(C3(c4ccc(-c5cnc(N)nc5)nc4)CCC3)no2)[nH]n1	164	> 37			
CC(C)[C@](C)(c1ccc(-c2cnc(N)nc2)nc1)c1noc(-c2cnn(C3COC3)c2)n1	37		6.6	< 0.3	Kinetic_solubility [2]: Soluble; solubility thermodynamic at 24 h, 1 µM [5]: 84 µg/mL (≈ 194 µM); inhibition at 30 µM [6]: 24%; hepatic extraction ratio at 1 h, 1 µM [7]: 0.34
CC(C)[C@](C)(c1ccc(-c2cnc(N)nc2)nc1)c1noc(-c2cnn(CC(=O)N(C)C)c2)n1	197		54	< 0.3	Kinetic_solubility [2]: Soluble; solubility [5]: Soluble
CC(C)(CO)n1cc(-c2nc(C3(c4ccc(-c5cnc(N)nc5)cc4)CCC3)no2)cn1	155	> 43			
CC1(O)CN(c2nc([C@@](C)(c3ccc(-c4cnc(N)nc4)cc3)C3CC3)no2)C1	72		16	< 0.24	inhibition at 5 min, 11 µM [8]: 13%; Kinetic_solubility [2]: Soluble; solubility [5]: Soluble
CC(C)(O)CN1CCN(c2nc([C@@](C)(c3ccc(-c4cnc(N)nc4)cc3)C3CC3)no2)CC1	99		53	0.36	Kinetic_solubility [2]: Soluble; inhibition at 5 min, 14 µM [9]: 26%; solubility [5]: Soluble
Cn1cc(-c2nc(C3(c4ccc(-c5cnc(N)nc5)nc4)CCC3)no2)cn1	270	24 (≈ 64.1 µM)		0.19	inhibition at 5 min, 11 µM [8]: 11%
Nc1ncc(-c2ccc(C3(c4noc(N5CCNCC5)n4)CCC3)cc2)cn1	680	> 37	324	0.35	Ratio IC50 [10]: 2
Nc1ncc(-c2ccc(C3(c4noc(-c5cnn(C6COC6)c5)n4)CCC3)cc2)cn1		> 41			inhibition at 5 min, 11 µM [8]: 43%
N#CCCn1cc(-c2nc(C3(c4ccc(-c5cnc(N)nc5)cc4)CCC3)no2)cn1	37	17 (≈ 41.2 µM)	1		
CC(C)OC1CCN(c2nc(C3(c4ccc(-c5cnc(N)nc5)cc4)CCC3)no2)CC1	174	16 (≈ 36.8 µM)	48	0.37	inhibition at 5 min, 14 µM [9]: 85%
Cn1cc(-c2nc(C3(c4ccc(-c5cnc(N)nc5)cc4)CCC3)no2)cn1		14 (≈ 37.5 µM)			inhibition at 5 min, 11 µM [8]: 25%
CCn1cc(-c2nc(C3(c4ccc(-c5cnc(N)nc5)nc4)CCC3)no2)cn1	192	> 38			
CN(C)C(=O)Cn1cc(-c2nc([C@@](C)(c3ccc(-c4cnc(N)nc4)nc3)C3CC3)no2)cn1	48		2.9	0.67	Kinetic_solubility [2]: Soluble; solubility [5]: Soluble
Nc1ncc(-c2ccc(C3(c4noc(N5CC(O)C5)n4)CCC3)cc2)cn1	315	> 36	160	< 0.24	inhibition at 5 min, 12 µM [11]: 18%; Ratio IC50 [10]: 2
Nc1ncc(-c2ccc(C3(c4noc(N5CC[C@H](O)C5)n4)CCC3)cc2)cn1	202	> 37		< 0.24	Ratio IC50 [10]: 6
CC(C)(C)NC(=O)Cn1cc(-c2nc(C3(c4ccc(-c5cnc(N)nc5)nc4)CCC3)no2)cn1	195	26 (≈ 54.9 µM)			
Nc1ncc(-c2ccc(C3(c4noc(N5CCCC5)n4)CCC3)cn2)cn1	917				
CN(C(=O)Cn1cc(-c2nc(C3(c4ccc(-c5cnc(N)nc5)nc4)CCC3)no2)cn1)C(C)(C)C	262	27 (≈ 55.4 µM)			
CC1(O)CCN(c2nc([C@@](C)(c3ccc(-c4cnc(N)nc4)nc3)C3CC3)no2)CC1	115		97		inhibition at 5 min, 30 µM [12]: 17%
Nc1ncc(-c2ccc(C3(c4noc(N5CCCCC5)n4)CCC3)cc2)cn1	387	4.1 (≈ 10.9 µM)			inhibition at 5 min, 33 µM [13]: 92%; Ratio IC50 [10]: 59
CN(C)C(=O)N1CCN(c2nc([C@@](C)(c3ccc(-c4cnc(N)nc4)cc3)C3CC3)no2)CC1	58		12	0.52	Kinetic_solubility [2]: Soluble; inhibition at 5 min, 30 µM [12]: 36%; solubility [5]: Soluble

SMILES	IC50 [1] [nM]	solubility kinetic [2] [µg/mL]	IC50 [3] [nM]	hepatic extraction ratio at 1 h, 1 µM [4]	further results
CC(C)(C#N)n1cc(-c2nc(C3(c4ccc(-c5cnc(N)nc5)nc4)CCC3)no2)cn1	94	2 (≈ 4.68 µM)			
N#CCCn1cc(-c2nc(C3(c4ccc(-c5cnc(N)nc5)nc4)CCC3)no2)cn1	85	> 40	11		solubility thermodynamic at 24 h, 1 µM [5]: 9 µg/mL (≈ 21.8 µM)
CC(C)(O)Cn1cc(-c2nc(C3(c4ccc(-c5cnc(N)nc5)cc4)CCC3)no2)cn1		> 43			
Cc1cc(-c2nc(C3(c4ccc(-c5cnc(N)nc5)cc4)CCC3)no2)[nH]n1	80	3 (≈ 8.03 µM)			
Nc1ncc(-c2ccc(C3(c4noc(N5CCCC5)n4)CCC3)cc2)cn1	467	16 (≈ 44.1 µM)			Ratio IC50 [10]: 56
COCCn1cc(-c2nc(C3(c4ccc(-c5cnc(N)nc5)cc4)CCC3)no2)cn1		> 41			
C[C@@](c1ccc(-c2cnc(N)nc2)nc1)(c1noc(-c2cnn(CC#N)c2)n1)C1CC1	19		8.1	0.57	Kinetic_solubility [2]: Soluble; solubility [5]: Soluble
CC(C)(O)Cn1cc(-c2nc(C3(c4ccc(-c5cnc(N)nc5)nc4)CCC3)no2)cn1	124	> 43		< 0.24	inhibition at 5 min, 11 µM [8]: < 10%; solubility thermodynamic at 24 h, 1 µM [5]: 45 µg/mL (≈ 104 µM); hepatic extraction ratio at 1 h, 1 µM [7]: 0.5
COCCn1cc(-c2nc(C3(c4ccc(-c5cnc(N)nc5)nc4)CCC3)no2)cn1	213	> 41			
CN(C(=O)Cn1cc(-c2nc(C3(c4ccc(-c5cnc(N)nc5)cc4)CCC3)no2)cn1)C(C)(C)C		2 (≈ 4.11 µM)			
Nc1ncc(-c2ccc(C3(c4noc(N)n4)CCC3)cc2)cn1		22 (≈ 71.3 µM)			
CC(C)(CO)n1cc(-c2nc(C3(c4ccc(-c5cnc(N)nc5)nc4)CCC3)no2)cn1	403	> 43			
Nc1ncc(-c2ccc(C3(c4noc(N5CCC(O)CC5)n4)CCC3)cn2)cn1	595				inhibition at 5 min, 30 µM [12]: 51%
CC(C)[C@](C)(c1ccc(-c2cnc(N)nc2)nc1)c1noc(-c2cnn(C)c2)n1	33		16	< 0.3	Kinetic_solubility [2]: Soluble; solubility thermodynamic at 24 h, 1 µM [5]: 4 µg/mL (≈ 10.2 µM)
Cn1cc(-c2nc(C3(c4ccc(-c5cnc(N)nc5)cn4)CCC3)no2)cn1	787	> 37			
C[C@@](c1ccc(-c2cnc(N)nc2)nc1)(c1noc(-c2cnn(C3COC3)c2)n1)C1CC1	12		1.5	0.45	Kinetic_solubility [2]: Soluble; solubility [5]: Soluble
Nc1ncc(-c2ccc(C3(c4noc(N5CCC(O)CC5)n4)CCC3)cc2)cn1	118	> 39		< 0.24	inhibition at 5 min, 17 µM [14]: 40%; Ratio IC50 [10]: 7
Nc1ncc(-c2ccc(C3(c4noc(N5CCN(CC6CCCO6)CC5)n4)CCC3)cc2)cn1 (configuration not stated)	182	26 (≈ 56.3 µM)	92	0.49	Ratio IC50 [10]: 2
Nc1ncc(-c2ccc(C3(c4noc(-c5cnn(C6COC6)c5)n4)CCC3)cn2)cn1	71	25 (≈ 60 µM)		< 0.24	inhibition at 5 min, 11 µM [8]: < 10%
CC(C)(C)NC(=O)Cn1cc(-c2nc(C3(c4ccc(-c5cnc(N)nc5)cc4)CCC3)no2)cn1		22 (≈ 46.6 µM)			
CN(C)c1nc(C2(c3ccc(-c4cnc(N)nc4)cc3)CCC2)no1		1.9 (≈ 5.65 µM)			
Cc1cc(-c2nc(C3(c4ccc(-c5cnc(N)nc5)cn4)CCC3)no2)[nH]n1	342	> 37			
